Experimental data taken from patent US8338517B2, “Aqueous compositions of fluorinated surfactants and methods of using the same” (3M Innovative Properties Company, priority 2007, dated 2012).

Test: Static surface tension of aqueous surfactant solutions (Kruss K-12 tensiometer, Du Nouy ring method)
Type: physicochemical
Settings: 1000 ppm in water, 20° C.
Method: The solution from was diluted with water to a concentration of 1000 ppm.
The procedure of Preparation 1 was followed except using 16.3 grams of C3F7OCHFCF2COOCH3 instead of the CF3O(CF2)3OCHFCF2COOCH3 to prepare a solution of C3F7OCHFCF2COOK. This solution was diluted with water to a concentration of 1000 ppm.
Static surface tensions were measured on the solutions of Preparations 1 to 6 using a Kruss K-12 tensiometer (obtained from Kruss GmbH, Hamburg, Germany) using the Du Nouy ring method at 20° C.

**Q.** For O=C([O-])C(F)(F)C(F)(F)C(F)(F)C(F)(F)C(F)(F)F.[K+] [potassium perfluorohexanoate], which “Surface Tension” value is on record?
**A.** The value was 58.5 mN/m.
